# According to patent US12077503B2, “Substituted cyclic amides and their use as herbicides” (FMC CORPORATION, priority 2015, dated 2024):
# Key:
# Assay type in all cases: in vivo
# Kochia (Kochia scoparia) [1] = test: Test A preemergence
# Method in brief: (§1)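 Visual injury scores from 0, no effect, to 100, complete control, were assigned versus untreated controls roughly 10 d after treatment in the greenhouse. Test chemicals, formulated with surfactant in a non-phytotoxic solvent, were applied to planted seeds as a preemergence soil spray or postemergence to one- to two-leaf plants 2 to 10 cm tall, in loam–sand soil.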
# [2] = test system: barnyardgrass (Echinochloa crus-galli); test: Test A preemergence
# Method in brief: as §1
# [3] = test system: giant foxtail (Setaria faberii); test: Test A preemergence
# Method in brief: as §1
# [4] = test system: pigweed (Amaranthus retroflexus); test: Test A preemergence
# [5] = test system: ragweed (common ragweed, Ambrosia elatior); test: Test A preemergence
# Method in brief: as §1
# [6] = test system: ryegrass, Italian (Italian ryegrass, Lolium multiflorum); test: Test A preemergence
# Method in brief: as §1
# [7] = test system: Galium (catchweed bedstraw, Galium aparine); test: Test A postemergence
# Method in brief: as §1
# Kochia (Kochia scoparia) [8] = test: Test A postemergence
# Method in brief: as §1
# [9] = test system: barnyardgrass (Echinochloa crus-galli); test: Test A postemergence
# Method in brief: as §1
# [10] = test system: blackgrass (Alopecurus myosuroides); test: Test A postemergence
# Method in brief: as §1
# corn (Zea mays) = test: Test A postemergence
# Method in brief: as §1
# [11] = test system: giant foxtail (Setaria faberii); test: Test A postemergence
# Method in brief: as §1
# [12] = test system: pigweed (Amaranthus retroflexus); test: Test A postemergence
# Method in brief: as §1
# [13] = test system: ragweed (common ragweed, Ambrosia elatior); test: Test A postemergence
# Method in brief: as §1
# [14] = test system: ryegrass, Italian (Italian ryegrass, Lolium multiflorum); test: Test A postemergence
# Method in brief: as §1
# [15] = test system: wheat (Triticum aestivum); test: Test A postemergence
# Method in brief: as §1
# [16] = test system: barnyardgrass (Echinochloa crus-galli); test: Test B flooded paddy test
# Method in brief: (§2)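 Compound goes directly into floodwater once pots are flooded 3 cm above soil, targeting plants at two leaves; the water depth is then held for the test duration. Plants sit 13–15 d in a greenhouse and are rated visually, 100 denoting complete control.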
# [17] = test system: ducksalad (Heteranthera limosa); test: Test B flooded paddy test
# Method in brief: as §2
# rice (Oryra sativa) = test: Test B flooded paddy test
# Method in brief: as §2
# [18] = test system: sedge, umbrella (small-flower umbrella sedge, Cyperus difformis); test: Test B flooded paddy test
# Method in brief: as §2
# [19] = Galium, post-emergence, 240 h, read-out: Plant response rating, Galium
# [20] = Bassia scoparia, post-emergence, 240 h, read-out: Plant response rating, Kochia
# [21] = Echinochloa crus-galli, post-emergence, 240 h, read-out: Plant response rating, Barnyardgrass
# [22] = Alopecurus myosuroides, post-emergence, 240 h, read-out: Plant response rating, Blackgrass
# [23] = Zea mays, post-emergence, 240 h, read-out: Plant response rating, Corn
# [24] = Setaria faberi, post-emergence, 240 h, read-out: Plant response rating, Foxtail, Giant
# [25] = Amaranthus retroflexus, post-emergence, 240 h, read-out: Plant response rating, Pigweed
# [26] = Ambrosia artemisiifolia, post-emergence, 240 h, read-out: Plant response rating, Ragweed
# [27] = Lolium multiflorum, post-emergence, 240 h, read-out: Plant response rating, Ryegrass, Italian
# [28] = Triticum aestivum, post-emergence, 240 h, read-out: Plant response rating, Wheat
# [29] = 125 g ai/ha, preemergence, 0 to 100 scale (0 no effect, 100 complete control)
# [30] = Preemergence, 500 g ai/ha, visual injury approx. 10 d
# [31] = 125 g ai/ha, postemergence, visual injury rating on 0 to 100 scale (0 no effect, 100 complete control), approx. 10 d
# [32] = 500 g ai/ha, postemergence, 0 to 100 scale, 0 no effect, 100 complete control
# [33] = Flood, 250 g ai/ha, 0 to 100 scale where 0 is no effect and 100 is complete control, 13 to 15 d
structure (smiles),measurement,setting,value
COc1ccc([C@H]2CN(C)C(=O)[C@@H]2C(=O)Nc2ccccc2SC)cc1F [Compound 1022],pest or weed control at 500 g/ha,"Kochia (Kochia scoparia) [1]; Bassia scoparia, pre-emergence, 240 h, read-out: Kochia plant response rating",80%
same,pest or weed control at 125 g/ha,"Kochia (Kochia scoparia) [1]; Bassia scoparia, pre-emergence, 240 h, read-out: Kochia plant response rating (0 to 100 scale, 0 is no effect, 100 is complete control)",70%
same,pest or weed control at 500 g/ha,"[2]; Echinochloa crus-galli, pre-emergence, 240 h, read-out: Barnyardgrass plant response rating",100%
same,pest or weed control at 125 g/ha,"[2]; Echinochloa crus-galli, pre-emergence, 240 h, read-out: Barnyardgrass plant response rating (0 to 100 scale, 0 is no effect, 100 is complete control)",60%
same,pest or weed control at 500 g/ha,"[3]; Setaria faberi, pre-emergence, 240 h, read-out: Foxtail, Giant plant response rating",100%
same,pest or weed control at 125 g/ha,"[3]; Setaria faberi, pre-emergence, 240 h, read-out: Foxtail, Giant plant response rating (0 to 100 scale, 0 is no effect, 100 is complete control)",100%
same,pest or weed control at 500 g/ha,"[4]; Amaranthus retroflexus, pre-emergence, 240 h, read-out: Pigweed plant response rating",70%
same,pest or weed control at 125 g/ha,"[4]; Amaranthus retroflexus, pre-emergence, 240 h, read-out: Pigweed plant response rating (0 to 100 scale, 0 is no effect, 100 is complete control)",30%
same,pest or weed control at 500 g/ha,"[5]; Ambrosia artemisiifolia, pre-emergence, 240 h, read-out: Ragweed plant response rating",0%
same,pest or weed control at 125 g/ha,"[5]; Ambrosia artemisiifolia, pre-emergence, 240 h, read-out: Ragweed plant response rating (0 to 100 scale, 0 is no effect, 100 is complete control)",0%
same,pest or weed control at 500 g/ha,"[6]; Lolium multiflorum, pre-emergence, 240 h, read-out: Ryegrass, Italian plant response rating",50%
same,pest or weed control at 125 g/ha,"[6]; Lolium multiflorum, pre-emergence, 240 h, read-out: Ryegrass, Italian plant response rating (0 to 100 scale, 0 is no effect, 100 is complete control)",0%
same,pest or weed control at 125 g/ha,[7]; [19],30%
same,pest or weed control at 500 g/ha,[7]; [19],50%
same,pest or weed control at 125 g/ha,Kochia (Kochia scoparia) [8]; [20],30%
same,pest or weed control at 500 g/ha,Kochia (Kochia scoparia) [8]; [20],60%
same,pest or weed control at 125 g/ha,[9]; [21],60%
same,pest or weed control at 500 g/ha,[9]; [21],100%
same,pest or weed control at 125 g/ha,[10]; [22],0%
same,pest or weed control at 500 g/ha,[10]; [22],0%
same,plant injury at 125 g/ha,corn (Zea mays); [23],0%
same,plant injury at 500 g/ha,corn (Zea mays); [23],20%
same,pest or weed control at 125 g/ha,[11]; [24],50%
same,pest or weed control at 500 g/ha,[11]; [24],70%
same,pest or weed control at 125 g/ha,[12]; [25],0%
same,pest or weed control at 500 g/ha,[12]; [25],0%
same,pest or weed control at 125 g/ha,[13]; [26],0%
same,pest or weed control at 500 g/ha,[13]; [26],0%
same,pest or weed control at 125 g/ha,[14]; [27],0%
same,pest or weed control at 500 g/ha,[14]; [27],30%
same,plant injury at 125 g/ha,[15]; [28],0%
same,plant injury at 500 g/ha,[15]; [28],30%
same,pest or weed control at 250 g/ha,"[16]; Echinochloa crus-galli, read-out: Barnyardgrass plant response rating",0%
same,pest or weed control at 250 g/ha,"[17]; Heteranthera limosa, read-out: Ducksalad plant response rating",75%
same,pest or weed control at 250 g/ha,"rice (Oryra sativa); Oryza sativa, read-out: Rice plant response rating",0%
same,pest or weed control at 250 g/ha,"[18]; Cyperus difformis, read-out: Sedge, Umbrella plant response rating",0%
O=C1NCC(c2cccc(C#Cc3ccccc3)c2)C1C(=O)Nc1cccc(F)c1F (stereo not drawn) [Compound 451],"Plant response rating, Kochia",Kochia (Kochia scoparia) [1]; [29],0
same,"Kochia plant response rating (0 to 100 scale, 0 is no effect, 100 is complete control)",Kochia (Kochia scoparia) [1]; [30],0
same,"Plant response rating, Barnyardgrass",[2]; [29],0
same,"Barnyardgrass plant response rating (0 to 100 scale, 0 is no effect, 100 is complete control)",[2]; [30],0
same,"Plant response rating, Foxtail, Giant",[3]; [29],0
same,"Foxtail, Giant plant response rating (0 to 100 scale, 0 is no effect, 100 is complete control)",[3]; [30],0
same,"Plant response rating, Pigweed",[4]; [29],0
same,"Pigweed plant response rating (0 to 100 scale, 0 is no effect, 100 is complete control)",[4]; [30],0
same,"Plant response rating, Ragweed",[5]; [29],0
same,"Ragweed plant response rating (0 to 100 scale, 0 is no effect, 100 is complete control)",[5]; [30],0
same,"Plant response rating, Ryegrass, Italian",[6]; [29],0
same,"Ryegrass, Italian plant response rating (0 to 100 scale, 0 is no effect, 100 is complete control)",[6]; [30],0
same,Galium plant response rating,[7]; [31],0
same,"Plant response rating, Galium",[7]; [32],0
same,Kochia plant response rating,Kochia (Kochia scoparia) [8]; [31],0
same,"Plant response rating, Kochia",Kochia (Kochia scoparia) [8]; [32],0
same,Barnyardgrass plant response rating,[9]; [31],0
same,"Plant response rating, Barnyardgrass",[9]; [32],0
same,Blackgrass plant response rating,[10]; [31],0
same,"Plant response rating, Blackgrass",[10]; [32],0
same,Corn plant response rating,corn (Zea mays); [31],0
same,"Plant response rating, Corn",corn (Zea mays); [32],0
same,"Foxtail, Giant plant response rating",[11]; [31],0
same,"Plant response rating, Foxtail, Giant",[11]; [32],0
same,Pigweed plant response rating,[12]; [31],0
same,"Plant response rating, Pigweed",[12]; [32],0
same,Ragweed plant response rating,[13]; [31],0
same,"Plant response rating, Ragweed",[13]; [32],0
same,"Ryegrass, Italian plant response rating",[14]; [31],0
same,"Plant response rating, Ryegrass, Italian",[14]; [32],0
same,Wheat plant response rating,[15]; [31],0
same,"Plant response rating, Wheat",[15]; [32],0
same,"Plant response rating, Barnyardgrass",[16]; [33],0
same,"Plant response rating, Ducksalad",[17]; [33],0
same,"Plant response rating, Rice",rice (Oryra sativa); [33],0
same,"Plant response rating, Sedge, Umbrella",[18]; [33],0
